Drawing on ChEMBL document CHEMBL1629710, “Synthesis and biological evaluation of N-substituted-3,5-diphenyl-2-pyrazoline derivatives as cyclooxygenase (COX-2) inhibitors” (Eur J Med Chem, 2010), this text covers inhibition and IC50 for 18 compounds.

The target of experiment [1] is Prostaglandin G/H synthase 1 (Homo sapiens) (UniProt P23219). The experiment can be described thus: Inhibition of human COX1 from platelet microsomes.
For experiment [2], the target named is T1, Prostaglandin G/H synthase 2 (Homo sapiens, UniProt P35354).
T1 sequence (P35354 whole entry): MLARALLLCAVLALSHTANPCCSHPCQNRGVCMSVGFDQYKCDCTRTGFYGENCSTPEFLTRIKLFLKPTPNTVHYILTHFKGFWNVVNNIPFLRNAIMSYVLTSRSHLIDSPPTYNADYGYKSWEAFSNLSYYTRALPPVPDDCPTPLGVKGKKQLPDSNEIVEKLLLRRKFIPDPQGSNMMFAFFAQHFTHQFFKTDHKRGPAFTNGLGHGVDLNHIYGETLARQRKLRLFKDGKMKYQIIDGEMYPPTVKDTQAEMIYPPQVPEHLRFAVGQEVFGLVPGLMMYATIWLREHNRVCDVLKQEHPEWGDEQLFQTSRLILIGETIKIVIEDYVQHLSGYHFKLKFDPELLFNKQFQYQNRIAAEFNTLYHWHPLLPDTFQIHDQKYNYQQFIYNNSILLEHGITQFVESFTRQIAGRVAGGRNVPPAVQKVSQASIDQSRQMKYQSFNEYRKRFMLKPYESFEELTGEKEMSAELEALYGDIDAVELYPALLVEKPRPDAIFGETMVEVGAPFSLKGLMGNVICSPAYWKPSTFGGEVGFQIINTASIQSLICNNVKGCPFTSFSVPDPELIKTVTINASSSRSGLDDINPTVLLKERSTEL
The experiment can be described thus: Inhibition of human recombinant COX2 expressed in baculovirus infected SF21 cell. The experiment is classed as cell-based.

In experiment [3] the target is T2, Prostaglandin G/H synthase 2 (Homo sapiens) (UniProt P35354).
T2 sequence (whole entry): T1 sequence (P35354 whole entry)
Description: Inhibition of human recombinant COX2 expressed in baculovirus infected SF21 cell at 100 uM.

The target of experiment [4] is T2, Prostaglandin G/H synthase 2 (Homo sapiens). Description: Inhibition of human recombinant COX2 expressed in baculovirus infected SF21 cell at 25 uM.

The source made the active and inactive calls. No cut-off for these calls is given here.

Chain of Prostaglandin G/H synthase 1 (Homo sapiens) (P23219 whole entry): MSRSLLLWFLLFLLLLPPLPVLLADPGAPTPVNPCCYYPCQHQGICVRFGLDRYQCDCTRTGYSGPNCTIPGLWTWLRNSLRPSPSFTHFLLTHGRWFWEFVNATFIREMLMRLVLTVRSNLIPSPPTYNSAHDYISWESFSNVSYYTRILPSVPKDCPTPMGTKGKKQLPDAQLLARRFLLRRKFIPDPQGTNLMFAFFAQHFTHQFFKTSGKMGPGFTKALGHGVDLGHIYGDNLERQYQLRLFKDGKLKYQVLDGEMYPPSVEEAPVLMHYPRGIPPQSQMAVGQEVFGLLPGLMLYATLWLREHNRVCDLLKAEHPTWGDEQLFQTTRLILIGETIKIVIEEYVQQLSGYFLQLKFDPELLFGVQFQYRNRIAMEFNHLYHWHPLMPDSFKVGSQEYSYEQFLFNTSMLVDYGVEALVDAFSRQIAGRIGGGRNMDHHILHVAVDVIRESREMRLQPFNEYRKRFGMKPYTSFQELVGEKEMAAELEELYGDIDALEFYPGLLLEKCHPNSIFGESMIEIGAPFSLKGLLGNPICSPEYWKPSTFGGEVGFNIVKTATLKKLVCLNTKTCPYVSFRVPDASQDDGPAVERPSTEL

The term IC50 denotes the concentration at which inhibition is half-maximal. As for `CC(=O)N1N=C(c2ccc(S(C)(=O)=O)cc2)CC1c1ccc(C(F)(F)F)cc1` (stereo unspecified), the inhibition entry in experiment [1] was “inactive”. In experiment [2], the IC50 worked out at 19.8 µM.

On to `Cc1ccc(C2CC(c3ccc(S(C)(=O)=O)cc3)=NN2C(N)=S)cc1` (stereo unspecified), for which, in experiment [1], the inhibition entry was “inactive”. Further, the 50% inhibitory concentration (IC50) in experiment [2] stood at 31.9 µM.

With `CC(=O)N1N=C(c2ccc(S(C)(=O)=O)cc2)CC1c1ccc(C)cc1` (stereo unspecified), the inhibition entry in experiment [1] is “inactive”. The IC50 in experiment [2] was found to be 6.77 µM.

Turning to `CC(=O)N1N=C(c2ccc(S(C)(=O)=O)cc2)CC1c1ccccc1` (stereo unspecified), the inhibition entry in experiment [1] and in experiment [3] was “inactive” throughout.

On to `CS(=O)(=O)c1ccc(C2=NN(C(N)=S)C(c3ccccc3OCc3ccccc3)C2)cc1` (stereo unspecified), for which the inhibition entry in experiment [1] and in experiment [4] was “inactive” in each case.

As to `CS(=O)(=O)c1ccc(C2=NN(C(N)=S)C(c3ccccc3)C2)cc1` (stereo unspecified), in experiment [1], the inhibition entry was “inactive”. In addition, the IC50 in experiment [2] is 50.3 µM.

`COc1ccc(C2CC(c3ccc(S(C)(=O)=O)cc3)=NN2C(C)=O)cc1` (stereo unspecified): the inhibition entry in experiment [1] is “inactive”. Further, the IC50 in experiment [2] stood at 7.61 µM.

As for `CS(=O)(=O)c1ccc(C2=NN(C(N)=S)C(c3ccc(F)cc3)C2)cc1` (stereo unspecified), the inhibition entry in experiment [1] and in experiment [3] was “inactive” each time.

For `COc1ccc(C2CC(c3ccc(S(C)(=O)=O)cc3)=NN2C(N)=S)cc1` (stereo unspecified), the inhibition result in experiment [1] and in experiment [4] was “inactive” each time.

As to `CC(=O)N1N=C(c2ccc(S(C)(=O)=O)cc2)CC1c1ccccc1OCc1ccccc1` (stereo unspecified), in experiment [1], the inhibition result was “inactive”. The IC50 in experiment [2] worked out at 3.2 µM.

Consider `CS(=O)(=O)c1ccc(C2=NN(C(N)=S)C(c3cccc(OCc4ccccc4)c3)C2)cc1` (stereo unspecified), for which the inhibition entry in experiment [1] and in experiment [4] was “inactive” throughout.

In the case of `CS(=O)(=O)c1ccc(C2=NN(C(N)=S)C(c3ccc(OCc4ccccc4)cc3)C2)cc1` (stereo unspecified), the inhibition entry in experiment [1] and in experiment [4] was “inactive” in each case.

Regarding `CC(=O)N1N=C(c2ccc(S(C)(=O)=O)cc2)CC1c1ccc(OCc2ccccc2)cc1` (stereo unspecified), the inhibition result in experiment [1] and in experiment [3] was “inactive” each time.

Take `CS(=O)(=O)c1ccc(C2=NN(C(N)=S)C(c3ccc(C(F)(F)F)cc3)C2)cc1` (stereo unspecified): the inhibition entry in experiment [1] and in experiment [4] was “inactive” each time.

On to `CC(=O)N1N=C(c2ccc(S(C)(=O)=O)cc2)CC1c1cccc(OCc2ccccc2)c1` (stereo unspecified), for which the inhibition result in experiment [1] and in experiment [3] was “inactive” in each case.

In the case of `CC(=O)N1N=C(c2ccc(S(C)(=O)=O)cc2)CC1c1ccc(Cl)cc1` (stereo unspecified), the inhibition entry in experiment [1] is “inactive”. The 50% inhibitory concentration (IC50) in experiment [2] stood at 21.7 µM.

As for `CC(=O)N1N=C(c2ccc(S(C)(=O)=O)cc2)CC1c1ccc(F)cc1` (stereo unspecified), the inhibition entry in experiment [1] is “inactive”. For the same compound, in experiment [2], the IC50 came to 19.6 µM.

As for `CS(=O)(=O)c1ccc(C2=NN(C(N)=S)C(c3ccc(Cl)cc3)C2)cc1` (stereo unspecified), the inhibition entry in experiment [1] is “inactive”. Further, the half-inhibitory concentration (IC50) in experiment [2] was found to be 9.35 µM.
